Counter-ions that a name gives are not always drawn. Like-named read-outs stand apart in the source and are kept apart here.
Tests used:
[1] = Validation screen: cytotoxicity without viral infection; conditions: human
[2] = in vitro; conditions: human, Relative Viability (%)
[3] = tested on: A/PuertoRico/8/1934 (H1N1) virus; test: microbe, parasite or virus in culture; assay type: cell-based, influenza A virus; conditions: Influenza A virus, H1N1, U-937, 48 h
[4] = tested on: A/PuertoRico/8/1934 (H1N1) virus; test: microbe, parasite or virus in culture; assay type: cell-based, influenza A virus
[5] = tested on: U937 cells; conditions: 20 µM
[6] = Influenza A virus, H1N1, U-937, 48 h, read-out: NA Inhibition (%)
[7] = Influenza A virus, H1N1, U-937, 48 h; read-out: NA Inhibition (%)

Compound | viability at 20 µM [2] | Relative Viability (%) [5] | NA Inhibition (%) ([4]; 20 µM) | further results
Cc1cccc(C(C)c2cnc[nH]2)c1C (centres unmarked) [Medetomidine HCl] | 103% |  |  | CC50 at 48 h [1]: > 80 µM; IC50 [3]: 12.5 µM; inhibition at 20 µM [4, 6]: 59.7%
CN1[C@@H]2CC[C@H]1C[C@@H](OC(c1ccccc1)c1ccccc1)C2 [Benztropine mesylate] | 108% |  |  | CC50 at 48 h ([1]; uninfected U937 cells): > 80 µM; inhibition at 20 µM [4, 6]: 57.8%
PRX-08066 Maleic acid |  | 92.0% | 20.2% | 
COc1ccc(C[C@@H](C)NC[C@H](O)c2ccc(O)c(NC=O)c2)cc1.COc1ccc(C[C@@H](C)NC[C@H](O)c2ccc(O)c(NC=O)c2)cc1.O=C(O)/C=C/C(=O)O [Formoterol Hemifumarate] |  | 121.9% | -23.1% | 
Ivabradine HCl |  | 104.6% | -0.1% | 
Naftopidil DiHCl |  | 88.1% | 6.2% | 
CN(C)CCOC(c1ccc(Cl)cc1)c1ccccn1.O=C(O)/C=C\C(=O)O (centres unmarked) [ArbinoxaMine Maleate] |  | 94.3% | 29.8% | 
CN(C)[C@@H](CCOc1cccc2ccccc12)c1ccccc1 [Dapoxetine HCl] | 110% |  |  | CC50 at 48 h ([1]; uninfected U937 cells): 76.1 µM; IC50 [3]: 6.65 µM; inhibition at 20 µM [4, 7]: 63.4%
OC(CNCC(O)C1CCc2cc(F)ccc2O1)C1CCc2cc(F)ccc2O1 (centres unmarked) [Nebivolol] | 89.4% |  |  | CC50 at 48 h ([1]; uninfected U937 cells): 33.3 µM; IC50 [3]: 9.8 µM; inhibition at 20 µM [4, 7]: 66.4%
Itopride hydrochloride |  | 109.7% | 9.1% | 
Varenicline Tartrate |  | 108.9% | 6.8% | 
CCCN[C@H]1CCc2nc(N)sc2C1 [Pramipexole] |  |  | -25.0 | Relative Viability (%) ([5]; human): 91.8
Galanthamine HBr |  | 108.7% | -13.2% | 
MetoclopraMide HCl |  | 126.3% | -36.9% | 
Lorcaserin HCl |  | 104.4% | 17.8% | 
Paroxetine HCl |  | 85.1% | 51.2% | 
Atipamezole hydrochloride |  | 119.4% | 58.1% | 
Succinylcholine Chloride Dihydrate |  | 99.6% | 13.3% | 
Cc1c(Cl)c(OCC(=O)N2CCN(C)CC2)nc2sc(C(=O)NC3CC3)c(N)c12 [LY2119620] |  | 99.3% | 19.0% | 
Gabapentin HCl |  | 111.9% | -16.1% | 
CN1CCc2cc3c(cc2[C@H]1[C@@H]1OC(=O)c2c1ccc1c2OCO1)OCO3 [(+)-Bicuculline] |  | 98.1% | -11.3% | 
Almotriptan Malate |  | 114.2% | 21.0% | 
CCCCCCNC(=O)Nc1ccc(S(=O)(=O)Nc2ccc(CCNC[C@H](O)COc3ccc(O)cc3)cc2)cc1 [L755507] |  | 100.1% | -1.1% | 
Cyclizine 2HCl |  | 90.9% | -4.6% | 
Urapidil HCl |  | 103.3% | 5.3% | 
Ondansetron HCl |  | 98.5% | 4.7% | 

Compound | viability at 20 µM [2] | Relative Viability (%) [5] | NA Inhibition (%) ([4]; 20 µM) | further results
(+)-Matrine |  | 109.9% | 9.9% | 
Vortioxetine (Lu AA21004) HBr |  | 95.3% | 23.8% | 
Cc1ccsc1C(=CCCN1CCC[C@@H](C(=O)O)C1)c1sccc1C [Tiagabine hydrochloride] |  |  | 19.9% | Relative Viability (%) ([5]; human): 91.7%
Cc1ccc(N(CC2=NCCN2)c2cccc(O)c2)cc1 [Phentolamine Mesylate] | 117% |  |  | CC50 at 48 h ([1]; uninfected U937 cells): > 80 µM; IC50 [3]: 1 µM; inhibition at 20 µM [4, 6]: 72.3%
Naloxone HCl Dihydrate |  | 113.1% | 27.3% | 
Bambuterol HCl |  | 102.5% | -2.9% | 
Synephrine HCl |  | 99.1% | 10.3% | 
OCCOCCN1CCN(C2=Nc3ccccc3Sc3ccccc32)CC1 [Quetiapine Fumarate] | 104% |  |  | inhibition at 20 µM [4, 6]: -29.1%
OCc1cc(C(O)CNCCCCCCOCCCCc2ccccc2)ccc1O (centres unmarked) [Salmeterol Xinafoate] | 90.4% |  |  | CC50 at 48 h ([1]; uninfected U937 cells): 40.2 µM; IC50 [3]: 4.4 µM; inhibition at 20 µM [4, 6]: 69.9%
CCN(CC)CC#CCOC(=O)C(O)(c1ccccc1)C1CCCCC1 (centres unmarked) [Oxybutynin] | 104% |  |  | inhibition at 20 µM [4, 6]: -3.6%
CN(C)CC(c1ccc(O)cc1)C1(O)CCCCC1 (centres unmarked) [Desvenlafaxine Succinate] | 98.8% |  |  | inhibition at 20 µM [4, 7]: 11%
Clc1cccc(Cl)c1N=C1NCCN1 [Clonidine HCl] | 99.2% |  |  | inhibition at 20 µM [4, 6]: -24.1%
C[C@](N)(Cc1ccc(O)c(O)c1)C(=O)O [Methyldopa] | 104% |  |  | inhibition at 20 µM [4, 6]: -13.4%
Cc1nc2n(c(=O)c1CCN1CCC(c3noc4cc(F)ccc34)CC1)CCCC2O (centres unmarked) [Paliperidone] | 110% |  |  | inhibition at 20 µM [4, 7]: 9.3%
CCCN1C[C@H](CSC)C[C@@H]2c3cccc4[nH]cc(c34)C[C@H]21 [Pergolide mesylate] | 118% |  |  | CC50 at 48 h ([1]; uninfected U937 cells): > 80 µM; IC50 [3]: 7.1 µM; inhibition at 20 µM [4, 7]: 67.8%
C=CC[N+]1([C@H]2C[C@H]3[C@@H]4CC[C@H]5C[C@H](O)[C@@H](N6CCOCC6)C[C@]5(C)[C@H]4CC[C@]3(C)[C@H]2OC(C)=O)CCCC1 [Rocuronium Bromide] | 106% |  |  | inhibition at 20 µM [4, 7]: 16.7%
Salbutamol Sulfate |  | 114.7% | 6.4% | 
CN(C)CC/C=C1/c2ccccc2COc2ccc(CC(=O)O)cc21 [Olopatadine HCl] | 122% |  |  | inhibition at 20 µM [4, 7]: -11.6%
CN(C)CCC(c1ccc(Cl)cc1)c1ccccn1 (centres unmarked) [Chlorpheniramine Maleate] | 102% |  |  | inhibition at 20 µM [4, 7]: 1%
CC(=O)OCC[N+](C)(C)C [Acetylcholine Chloride] | 104% |  |  | inhibition at 20 µM [4, 7]: -5.4%
CN1CCCC(n2nc(Cc3ccc(Cl)cc3)c3ccccc3c2=O)CC1 (centres unmarked) [Azelastine HCl] | 99.4% |  |  | CC50 at 48 h ([1]; uninfected U937 cells): 55.7 µM; IC50 [3]: 8.4 µM; inhibition at 20 µM [4, 7]: 55.3%
Tetrahydrozoline HCl |  | 96.0% | 9.5% | 
CC(C)NCC(O)COc1ccc(CCOCC2CC2)cc1 (centres unmarked) [Betaxolol] | 115% |  |  | inhibition at 20 µM [4, 6]: 6.7%
NC12CC3CC(CC(C3)C1)C2 [Amantadine HCl] | 110% |  |  | inhibition at 20 µM [4, 7]: 69.2%
COc1cc2c(cc1OC)[C@@H]1Cc3ccc(OC)c(OC)c3CN1CC2 [Rotundine] | 112% |  |  | inhibition at 20 µM [4, 7]: 17.4%
Hydroxyzine 2HCl |  | 101.7% | 18.4% | 

— publication PMC12069340 (Frontiers in Cellular and Infection Microbiology, 2025)
